The text below walks through data of patent US6951658B1, “Emu-based compositions for mental well-being and method of use” (Pearson Research & Development Limited, priority 2003, dated 2005).

Data set [1] is described as follows: side effects in the Example 2 patient. Type of data set: in vivo, human. As to conditions: Example 2, person, oral. The text has this: Example 2 Mature human ingests 7 to 10 drops of emu oil per day, […].
The conditions of data set [2]: subjects with age-related memory decline, 60 days of treatment; cited from earlier work.
For data set [3] the following is noted: rats; cited from earlier work.
For data set [4] the following is noted: humans; cited from earlier work.
For data set [5] the following is noted: multi-infarct dementia patients; cited from earlier work.

Regarding `CC[C@H](C)C(=O)O[C@H]1C[C@@H](C)C=C2C=C[C@H](C)[C@H](CC[C@@H]3C[C@@H](O)CC(=O)O3)[C@H]21` [Mevocore], the side effects entry in data set [1] is “has suffered side effects, including hair loss”.
On to `O=C(O)[C@@H]1CCC(O)=N1` [pyroglutamate, 2-oxo-pyrrolidone carboxylic acid], for which the verbal memory functions result in data set [2] is reported as “effective in improving verbal memory functions”. In data set [3], the anti-anxiety effects entry is recorded as “has anti-anxiety effects”; the memory and learning result was “improves memory and learning”. In addition, the alcohol-induced memory deficits result in data set [4] is “effective”. For the same compound, in data set [5], the attention entry is “significant increase of attention”; the consolidation of memory result is “statistically significant improvement”; the “psychological tests of short-term retrieval, long-term retrieval and long-term storage of memory” value is reported as “improvement”.
